Values after ≈ are worked out from the molar mass of the structure shown. Starred links: 1 amine or outer side, 2 acyl side, 3 side chain; linkers in the order of their positions; H or OH if unused. Non-standard residues stand in square brackets, D forms with d. Residues, ends and D or L forms follow the SMILES beside them. X2 = CN([C@@H](Cc1cccc(-c2cccc(-c3ccccc3)c2)c1)C(=O)[*:2])[*:1]; X12 = CC(=O)Nc1ccc(-c2cccc(C[C@@H](C(=O)[*:2])N(C)[*:1])c2)cc1; X15 = CNC(=O)c1ccc(-c2cccc(C[C@@H](C(=O)[*:2])N(C)[*:1])c2)cc1; X13 = COc1ccc(-c2cccc(C[C@@H](C(=O)[*:2])N(C)[*:1])c2)cc1; X10 = CCCCCC/C=C/c1cccc(C[C@@H](C(=O)[*:2])N(C)[*:1])c1; X14 = CN([C@@H](Cc1cccc(C2=CCCCC2)c1)C(=O)[*:2])[*:1]; X5 = CN([C@@H](Cc1cccc(B(O)O)c1)C(=O)[*:2])[*:1]; NMePhe(3-I) = CN[C@@H](Cc1cccc(I)c1)C(=O)O; Hmp(2R,3S) = CC[C@H](C)[C@@H](O)C(=O)O; NMeVal(β-OH) = CN[C@H](C(=O)O)C(C)(C)O; NMeD = CN[C@@H](CC(=O)O)C(=O)O; NMeV = CN[C@H](C(=O)O)C(C)C
Tests used:
Candida albicans = experiment: Antifungal activity against Candida albicans by broth dilution method; format: functional
Aspergillus fumigatus = experiment: Antifungal activity against Aspergillus fumigatus by broth dilution method; format: functional

Compound | MIC (Candida albicans) [µg/mL] | MIC (Aspergillus fumigatus) [µg/mL]
CC[C@H](C)[C@@H]1NC(=O)[C@@H]2CCCN2C(=O)[C@H](CC(=O)O)N(C)C(=O)[C@H](CC(=O)O)NC(=O)[C@H](C(C)C)N(C)C(=O)[C@@H]([C@@H](C)CC)OC(=O)[C@H](C(C)(C)O)N(C)C(=O)[C@H](CC(C)C)NC(=O)[C@H](C(C)C)N(C)C1=O (cyclo(D[NMeD]PI[NMeV]L[NMeVal(β-OH)][Hmp(2R,3S)][NMeV])) | 10 (≈ 9.64 µM) | > 100
CC[C@H](C)[C@@H]1NC(=O)[C@@H]2CCCN2C(=O)[C@H](Cc2cccc(B(O)O)c2)N(C)C(=O)[C@H](Cc2ccccc2)NC(=O)[C@H](C(C)C)N(C)C(=O)[C@@H]([C@@H](C)CC)OC(=O)[C@H](C(C)(C)O)N(C)C(=O)[C@H](CC(C)C)NC(=O)[C@H](C(C)C)N(C)C1=O (cyclo(F[X5]PI[NMeV]L[NMeVal(β-OH)][Hmp(2R,3S)][NMeV])) | < 0.05 | > 100
CC[C@H](C)[C@@H]1NC(=O)[C@@H]2CCCN2C(=O)[C@H](Cc2cccc(C3=CCCCC3)c2)N(C)C(=O)[C@H](Cc2ccccc2)NC(=O)[C@H](C(C)C)N(C)C(=O)[C@@H]([C@@H](C)CC)OC(=O)[C@H](C(C)(C)O)N(C)C(=O)[C@H](CC(C)C)NC(=O)[C@H](C(C)C)N(C)C1=O (cyclo(F[X14]PI[NMeV]L[NMeVal(β-OH)][Hmp(2R,3S)][NMeV])) |  | > 5
CC[C@H](C)[C@@H]1NC(=O)[C@@H]2CCCN2C(=O)[C@H](Cc2cccc(-c3ccc(C(=O)NC)cc3)c2)N(C)C(=O)[C@H](Cc2ccccc2)NC(=O)[C@H](C(C)C)N(C)C(=O)[C@@H]([C@@H](C)CC)OC(=O)[C@H](C(C)(C)O)N(C)C(=O)[C@H](CC(C)C)NC(=O)[C@H](C(C)C)N(C)C1=O (cyclo(F[X15]PI[NMeV]L[NMeVal(β-OH)][Hmp(2R,3S)][NMeV])) |  | > 5

More lines, now with the values ahead:

MIC (Candida albicans) [µg/mL] | MIC (Aspergillus fumigatus) [µg/mL] | Compound
2.5 (≈ 2.04 µM) | > 5 | CC[C@H](C)[C@@H]1NC(=O)[C@@H]2CCCN2C(=O)[C@H](Cc2cccc(I)c2)N(C)C(=O)[C@H](Cc2ccccc2)NC(=O)[C@H](C(C)C)N(C)C(=O)[C@@H]([C@@H](C)CC)OC(=O)[C@H](C(C)(C)O)N(C)C(=O)[C@H](CC(C)C)NC(=O)[C@H](C(C)C)N(C)C1=O (cyclo(F[NMePhe(3-I)]PI[NMeV]L[NMeVal(β-OH)][Hmp(2R,3S)][NMeV]))
< 5 | > 5 | CC[C@H](C)[C@@H]1NC(=O)[C@@H]2CCCN2C(=O)[C@H](Cc2cccc(-c3cccc(-c4ccccc4)c3)c2)N(C)C(=O)[C@H](Cc2ccccc2)NC(=O)[C@H](C(C)C)N(C)C(=O)[C@@H]([C@@H](C)CC)OC(=O)[C@H](C(C)(C)O)N(C)C(=O)[C@H](CC(C)C)NC(=O)[C@H](C(C)C)N(C)C1=O (cyclo(F[X2]PI[NMeV]L[NMeVal(β-OH)][Hmp(2R,3S)][NMeV]))
5 (≈ 4.14 µM) |  | CC[C@H](C)[C@@H]1NC(=O)[C@@H]2CCCN2C(=O)[C@H](Cc2cccc(-c3ccc(OC)cc3)c2)N(C)C(=O)[C@H](Cc2ccccc2)NC(=O)[C@H](C(C)C)N(C)C(=O)[C@@H]([C@@H](C)CC)OC(=O)[C@H](C(C)(C)O)N(C)C(=O)[C@H](CC(C)C)NC(=O)[C@H](C(C)C)N(C)C1=O (cyclo(F[X13]PI[NMeV]L[NMeVal(β-OH)][Hmp(2R,3S)][NMeV]))
 | > 5 | CC[C@H](C)[C@@H]1NC(=O)[C@@H]2CCCN2C(=O)[C@H](Cc2cccc(-c3ccc(NC(C)=O)cc3)c2)N(C)C(=O)[C@H](Cc2ccccc2)NC(=O)[C@H](C(C)C)N(C)C(=O)[C@@H]([C@@H](C)CC)OC(=O)[C@H](C(C)(C)O)N(C)C(=O)[C@H](CC(C)C)NC(=O)[C@H](C(C)C)N(C)C1=O (cyclo(F[X12]PI[NMeV]L[NMeVal(β-OH)][Hmp(2R,3S)][NMeV]))
 | > 5 | CCCCCC/C=C/c1cccc(C[C@H]2C(=O)N3CCC[C@H]3C(=O)N[C@@H]([C@@H](C)CC)C(=O)N(C)[C@@H](C(C)C)C(=O)N[C@@H](CC(C)C)C(=O)N(C)[C@@H](C(C)(C)O)C(=O)O[C@H]([C@@H](C)CC)C(=O)N(C)[C@@H](C(C)C)C(=O)N[C@@H](Cc3ccccc3)C(=O)N2C)c1 (cyclo(F[X10]PI[NMeV]L[NMeVal(β-OH)][Hmp(2R,3S)][NMeV]))
